Results on two compounds are retold here after patent publication US8012940B2, “Utilization of anti-neuropathic pain effect of D-allose and D-psicose” (Teikoku Seiyaku Co., Ltd., priority 2005, dated 2011).

The structures appear in SMILES notation.

The test system of data set [1] is Chung model as a rat neuropathic pain model. As to the kind of experiment: von Frey test, pain threshold in the Chung model. The data set is classed as in vivo. The conditions noted are these: for pain threshold at the von Frey test: vs distilled water-dosed group; for pain threshold, dose dependence: 1 to 6 g/kg oral. How it is done:
Male SD rats of age 6 weeks were divided into groups, each group consisting of 10 rats. So as to examine the effect of a test substance on neuropathic pain, the Chung model was prepared. Specifically, unilateral 5-th and 6-th lumbar pulp nerves of the lumbar pulp nerves were completely knotted at a site as close as possible to lumbar vertebrae. After a 10-day recovery period, the von Frey test was done on the footpad on the surgery side, to measure the pain threshold. The von Frey test was done three times at a 1-week interval as drug holiday. At the first test, the effect of D-allose on the pain threshold was examined; and at the second test and the third test, the effects of D-psicose and a mixture of D-allose and D-psicose on the pain threshold were examined. The test substances were all dissolved in distilled water. The dose in volume was 5 mL/kg for oral administration. The pain threshold was measured immediately before the administration of test substances, and 15 minutes, 30 minutes, 60 minutes and 120 minutes after the administration. The results are expressed as mean and standard error. The significance of the mean was tested by the Dunnett's multiple test. Neuropathic pain models are frequently used as human neuralgia models for making research works on pain and screening for analgesics. […] The Chung model as the neuropathic pain model used in the research works is a model with a characteristic feature such that the model is afflicted with a strong pain on contact stimulation, and is known that the model is annoyed with a pain very similar to human neuralgia (Exp. Brain Res., 113, 200-206, 1997). In such model, the von Frey test is frequently used so as to assay the pain intensity via contact. The von Frey test is a method for observing whether or not an animal when the footpad is pressed with a fine metal wire withdraws the leg. When the animal withdraws the leg, the force just pressing the footpad is defined the threshold then.

Another data set can be described thus: Solubility in water. The format is physicochemical.
A further data set has as its system leukocyte. The conditions noted are these: in vitro, cited from earlier work.

For `O=C(CO)[C@H](O)[C@H](O)[C@H](O)CO` [D-psicose], the “pain threshold at the von Frey test” value in data set [1] (1 g/kg oral, 15 minutes after administration) is given as “not significantly different”. In data set [1] (3 g/kg oral, 15 and 30 minutes after administration), the “pain threshold at the von Frey test” value is reported as “significant increase”. The “pain threshold, dose dependence” value in data set [1] (single administration) is given as “highly raised, in a manner proportional to the dose”. Moreover, the “increase of the threshold compared with the administration of D-allose” value in data set [1] (single administration, oral) is “greater”. The solubility in water result in the data set “Solubility in water” is recorded as “highly soluble in water”. In addition, in the data set with leukocyte (similar experiments), the MCP-1 secretion result is “MCP-1 secretion-suppressing action” and the active oxygen scavenging entry is “active oxygen-scavenging action”.
`O=C[C@H](O)[C@H](O)[C@H](O)[C@H](O)CO` [D-allose]: the “pain threshold at the von Frey test” value in data set [1] (1 g/kg oral, N=10) is given as “not significantly different”; in data set [1] (3 g/kg oral, 15 minutes after administration), “significant increase”; in data set [1] (6 g/kg oral, 15, 30 and 60 minutes after administration), “significant increase”. In addition, the “pain threshold, dose dependence” value in data set [1] (single administration) is reported as “highly raised, in a manner proportional to the dose”. The solubility in water entry in “Solubility in water” was “highly soluble in water”. Also, the active oxygen generation entry in the data set on leukocyte (leukocyte) was “action of suppressing active oxygen generation”.
